In patent US7691572B2, “Method and kit for detecting resistance to antiviral drugs” (priority 1998, dated 2010):
Where two headings read alike, the source gives them in different places.

Experiments:
HIV-1 reference viruses [1] = settings: read-out: IC50 Culture based assay, cited from earlier work
HIV-1 [2] = settings: cited from earlier work
HIV-1 RT [3] = type: biochemical
patient-derived HIV-1 [4] = assay: culture-based plaque reduction assay (Schmit et al., 1996); type: cell-based
Source text: The results obtained are correlated with the genotypes of the specimens.

HIV-1 RT [5] = settings: cited from earlier work
HIV-1 [6] = settings: classical AZT resistance mutations T215Y/F, M41L, D67N, K70R, K219Q/E; cited from earlier work
patient-derived HIV-1 [7] = settings: read-out: IC50 Culture based assay, cited from earlier work
HIV-1 reference viruses [8] = assay: culture-based assay, inhibition of HIV-1-induced cytopathic effect; type: cell-based
Source text: The IC50 values of AZT-TP for WT and MNR reference viruses determined by the Amp-RT assay were compared with previously reported IC50 values determined by a conventional RT assay and a culture-based phenotypic assay (Ueno et al., “Enzymatic characterization of human immunodeficiency virus type 1 reverse transcriptase resistant to multiple 2′,3′-dideoxynucleoside 5′-triphosphates,” J. Biol, Chem. 270: 23605-23611 (1995); Shirasaka et al., “Emergence of human immunodeficiency virus type 1 variants with resistance to multiple dideoxynucleosides in patients receiving therapy with dideoxynucleosides,” Proc. Nat. Acad. Sci. U.S.A. 92: 2398-2402 (1995)).

HIV-1 RT [9] = biological target: HIV-1 RT (Human immunodeficiency virus type 1, UniProt P04585, F664L/F703Y/Q738M); assay: Amp-RT assay, AZT-TP and other NRTI-TPs, reference viruses; type: biochemical
HIV-1 RT [10] = biological target: HIV-1 RT (Human immunodeficiency virus type 1, UniProt P04585, A649V/F664L/F703Y/Q738M/V662I); assay: as above; type: biochemical
HIV-1 RT [11] = assay: as above; type: biochemical
HIV-1 RT [12] = biological target: HIV-1 RT (Human immunodeficiency virus type 1, UniProt P04585, Q738M); assay: as above; type: biochemical
HIV-1 RT [13] = biological target: T1, HIV-1 RT (Human immunodeficiency virus type 1 group M subtype B, UniProt P04585); assay: as above; type: biochemical; settings: WT HIV-1SUM9
HIV-1 RT [14] = biological target: HIV-1 RT (Human immunodeficiency virus type 1, UniProt P04585, S655G/V662I, form not given); type: biochemical; settings: read-out: IC50 Amp-RT assay; patient-derived virus 14 (L4), A62A/V, S68G, V75I, F77L, F116Y, Q151M
Source text: (§1) Four groups of archived HIV-1 specimens with known genotypes were selected for assay validation. These included WT, MNR, MNR carrying unrelated resistance mutations, and non-MNR specimens carrying classical AZT resistance mutations (Schmit et al., “Multiple drug resistance to nucleoside analogues and nonnucleoside reverse transcriptase inhibitors in an efficiently replicating human immunodeficiency virus type 1 patient strain,” J. Infect. Dis. 174: 962-968 (1996); Winters et al., “A 6-base pair insert in the reverse transcriptase gene of human immunodeficiency virus type 1 confers resistance to multiple nucleoside inhibitors,” J. Clin. Invest. 102: 1769-1775 (1998); Adje et al., “High prevalence of genotypic and phenotypic HIV-1 drug-resistant strains among patients receiving antiretroviral therapy in Abidjan, Cote d'Ivoire,” J. Acquired Immune Deficiency Syndromes 26: 501-506 (2001); Weinstock et al., “Prevalence of mutations associated with reduced antiretroviral drug susceptibility among human immunodeficiency virus type 1 seroconverters in the United States, 1993-1998,” J. Infect. Dis. 182: 330-333 (2000)). Forty-four samples were selected which comprised 7 viral stocks and 37 plasma samples obtained from 34 HIV-1-infected persons.

HIV-1 RT [15] = biological target: HIV-1 RT (Human immunodeficiency virus type 1, UniProt P04585, F664L/S655G/V662I, form not given); type: biochemical; settings: read-out: IC50 Amp-RT assay; patient-derived virus 15 (L6), S68G, V75I, F77L, K103N, F116Y, Q151M, M184V
Source text: as §1

HIV-1 RT [16] = type: biochemical; remark: listed apart in the source
Source text: as §1

HIV-1 RT [17] = biological target: HIV-1 RT (Human immunodeficiency virus type 1, UniProt P04585, Q738M/S655G); type: biochemical; settings: read-out: IC50 Amp-RT assay; patient-derived virus 13 (L2), S68G, Q151M
Source text: as §1

HIV-1 RT [18] = biological target: T1, HIV-1 RT; type: biochemical; settings: read-out: IC50 Amp-RT assay; patient-derived virus 12 (L1), None
Source text: as §1

[19] = HIV1SUM13 (A62V, V75I, F77L, F116Y, Q151M)

SMILES: Cc1cn([C@H]2C[C@H](N=[N+]=[N-])[C@@H](CO)O2)c(=O)[nH]c1=O [AZT, zidovudine]
- IC50 (HIV-1 reference viruses [1]; HIV1SUM8 (Q151M)): 5000 nM
- IC50 (HIV-1 reference viruses [1]; HIV1SUM9 (None)): 500 nM
- IC50 (HIV-1 reference viruses [1]; HIV1SUM12 (F77L, F116Y, Q151M)): > 160000 nM
- IC50 (HIV-1 reference viruses [1]; [19]): > 160000 nM
- reduced susceptibility to AZT (HIV-1 [2]; plasma sample HIV-1R598 (D67N, V106A, L214W, L214F, T215Y)): 100 fold
- reduced susceptibility to AZT (HIV-1 [2]; specimen no. 40 (T215Y, T69S-EA insertions)): 100 fold
- fold change from IC50 of WT HIV-1, RT assay (HIV-1 RT [3]; HIV1SUM8 (Q151M)): (8.3) fold
- fold change from IC50 of WT HIV-1, RT assay (HIV-1 RT [3]; HIV1SUM12): (38) fold
- fold change from IC50 of WT HIV-1, RT assay (HIV-1 RT [3]; HIV1SUM13): (65) fold
- fold change from IC50 of WT HIV-1, Culture based assay (patient-derived HIV-1 [4]; 13 (L2)): (1.5) fold
- fold change from IC50 of WT HIV-1, Culture based assay (patient-derived HIV-1 [4]; 14 (L4)): (633) fold
- fold change from IC50 of WT HIV-1, Culture based assay (patient-derived HIV-1 [4]; 15 (L6)): (3117) fold
- IC50 (HIV-1 RT [5]; HIV1SUM8 (Q151M)): 190 nM
- IC50 (HIV-1 RT [5]; HIV1SUM9 (None)): 23 nM
- IC50 (HIV-1 RT [5]; HIV1SUM12 (F77L, F116Y, Q151M)): 880 nM
- IC50 (HIV-1 RT [5]; [19]): 1500 nM
- resistance to AZT (HIV-1 [6]): > 100 fold
- IC50 (patient-derived HIV-1 [7]; 12 (L1), None): 6 nM
- IC50 (patient-derived HIV-1 [7]; 13 (L2), S68G, Q151M): 9 nM
- IC50 (patient-derived HIV-1 [7]; 14 (L4), A62A/V, S68G, V75I, F77L, F116Y, Q151M): 3800 nM
- IC50 (patient-derived HIV-1 [7]; 15 (L6), S68G, V75I, F77L, K103N, F116Y, Q151M, M184V): 18700 nM
- fold change from IC50 of WT HIV-1, Culture based assay (HIV-1 reference viruses [8]; HIV1SUM8): (10) fold
- fold change from IC50 of WT HIV-1, Culture based assay (HIV-1 reference viruses [8]; HIV1SUM12): (>320) fold
- fold change from IC50 of WT HIV-1, Culture based assay (HIV-1 reference viruses [8]; HIV1SUM13): (>320) fold
- IC50 (HIV-1 RT [9]): 11000 nM
- IC50 (HIV-1 RT [10]): 18000 nM
- fold resistance (IC50) as compared to the mean IC values of WT HIV-1 (HIV-1 RT [11]; MNR HIV-1SUM8 (Q151M)): (5) fold
- fold resistance (IC50) as compared to the mean IC values of WT HIV-1 (HIV-1 RT [11]; MNR HIV-1SUM12 (F77L, F116Y, Q151M)): (22) fold
- fold resistance (IC50) as compared to the mean IC values of WT HIV-1 (HIV-1 RT [11]; MNR HIV-1SUM13 (A62V, V75I, F77L, F116Y, Q151M)): (36) fold
- IC50 (HIV-1 RT [12]): 2500 nM
- IC50 (HIV-1 RT [13]): 500 nM
- IC50 (HIV-1 RT [14]): 8230 nM
- IC50 (HIV-1 RT [15]): 14600 nM
- fold change from IC50 of WT HIV-1, Amp-RT assay (HIV-1 RT [16]; patient-derived virus 13 (L2)): (3.9) fold
- fold change from IC50 of WT HIV-1, Amp-RT assay (HIV-1 RT [16]; patient-derived virus 14 (L4)): (23.5) fold
- fold change from IC50 of WT HIV-1, Amp-RT assay (HIV-1 RT [16]; patient-derived virus 15 (L6)): (41.8) fold
- IC50 (HIV-1 RT [17]): 1350 nM
- IC50 (HIV-1 RT [18]): 350 nM
